Data reported in the NIST ThermoML archive (doi:10.1021/je700598v).

Experiment: cn = amount concentration of the nth substance listed, in mol/dm3
Settings: 101 kPa, Liquid; for viscosity: Capillary tube (Ostwald / Ubbelohde) method; for mass density: Pycnometric method; for binary diffusion coefficient: Taylor dispersion method

OC[C@H]1O[C@@H]2O[C@H]3[C@H](O)[C@@H](O)[C@@H](O[C@H]4[C@H](O)[C@@H](O)[C@@H](O[C@H]5[C@H](O)[C@@H](O)[C@@H](O[C@H]6[C@H](O)[C@@H](O)[C@@H](O[C@H]7[C@H](O)[C@@H](O)[C@@H](O[C@H]8[C@H](O)[C@@H](O)[C@@H](O[C@H]9[C@H](O)[C@@H](O)[C@@H](O[C@H]1[C@H](O)[C@H]2O)O[C@@H]9CO)O[C@@H]8CO)O[C@@H]7CO)O[C@@H]6CO)O[C@@H]5CO)O[C@@H]4CO)O[C@@H]3CO [γ-cyclodextrin] + O
Settings	binary diffusion coefficient, 298.15 K [m2/s]	binary diffusion coefficient, 310.15 K [m2/s]	mass density, 298.15 K [kg/m3]	mass density, 310.15 K [kg/m3]	viscosity, 298.15 K [mPa·s]	viscosity, 310.15 K [mPa·s]
c1 = 0.00186	–	–	896.2	697	0.9975	0.9938
c1 = 0.002	3.57e-10	4.8e-10	–	–	–	–
c1 = 0.004979	–	–	906.1	708.2	0.999	0.9949
c1 = 0.005	3.55e-10	4.7e-10	–	–	–	–
c1 = 0.007923	–	–	919.2	717.2	1.001	0.997
c1 = 0.008	3.53e-10	4.61e-10	–	–	–	–
c1 = 0.009981	–	–	927	723.4	1.002	0.9984
c1 = 0.01	3.52e-10	4.53e-10	–	–	–	–
